# Values of other authors as cited in PMC4203335 (International Journal of Oncology, 2014).
# Experiments:
# [1] = mice
# [2] = system: Burkitt lymphoma xenografts
# [3] = system: N-Myc-induced neuroblastoma
compound,measurement,setting,value
O=c1[nH]c(=S)[nH]c(-c2ccccc2)c1Cc1c(O)ccc2ccccc12 [Cambinol],tolerability,[1],well tolerated
same,growth of xenografts,[2],significantly inhibited
CN(C)CCCCC(=O)Nc1ccc(NC(=S)NC(=O)c2ccc(C(C)(C)C)cc2)cc1 [Tenovin-6],tumorigenesis,melanoma,suppressed tumorigenesis
same,tumorigenesis,[3],suppressed tumorigenesis
CC(C)=CCC[C@]1(C)[C@@H](CC=C(C)C)C[C@@]2(CC=C(C)C)C(=O)[C@]1(C(=O)C(C)C)C(=O)C(CC=C(C)C)=C2OCC(=O)O [aristoforin],SIRT1 inhibitory activity,SIRT1,have SIRT1 inhibitory activity
guttiferone G,SIRT1 inhibitory activity,SIRT1,have SIRT1 inhibitory activity
inauhzin,xenograft growth,colon xenograft,reduced colon xenograft growth
